Results: publication PMC5788402, “Impact of Target Warhead and Linkage Vector on Inducing Protein Degradation: Comparison of Bromodomain and Extra-Terminal (BET) Degraders Derived from Triazolodiazepine (JQ1) and Tetrahydroquinoline (I-BET726) BET Inhibitor Scaffolds” (Journal of Medicinal Chemistry, 2017)

What was measured:
Brd4^BD2 = Brd4^BD2 (Homo sapiens, UniProt O60885); assay: ITC binary titration, Brd4^BD2 into PROTAC; assay type: binding; conditions: Brd4^BD2 in syringe, PROTAC in cell
[1] = target: VHL-EloC-EloB protein (VCB) (Homo sapiens, UniProt P40337); assay: ITC binary titration, VCB into PROTAC; assay type: binding; conditions: VCB in syringe, PROTAC in cell
[2] = target: VCB / Brd4^BD2 ternary complex (Homo sapiens, UniProt O60885+P40337); assay: ITC ternary titration, VCB into Brd4^BD2–PROTAC complex; assay type: binding; conditions: for α: cooperativity, ratio between binary and ternary Kd; for α / ΔpKd ± uncertainty: Brd4^BD2; for cooperativity (α) Brd4–BD2: ternary complex formation with VCB and Brd4^BD2, as tabulated in Table 2; for ΔpKd ± uncertainty: ternary vs binary
[3] = test system: BET proteins Brd2, Brd3, Brd4; assay: BET degradation profile in HeLa cells; assay type: cell-based
Brd2BD1 = Brd2BD1 (Homo sapiens, UniProt P25440); assay: ITC binary titration, Brd2BD1 into 10; assay type: binding; conditions: Brd2BD1 in syringe
Sequence of Brd2BD1 (P25440 74-180 limits assumed): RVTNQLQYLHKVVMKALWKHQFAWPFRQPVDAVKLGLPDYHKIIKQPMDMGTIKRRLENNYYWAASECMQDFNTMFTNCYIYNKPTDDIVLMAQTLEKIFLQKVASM
Text: (§1) Bromodomain and VCB complex constructs and protein preparation were described in a previous publication.[5] Wild-type version of human proteins VHL (UniProt accession number P40337), ElonginC (Q15369), ElonginB (Q15370), and the bromodomains of Brd2 (P25440), Brd3 (Q15059), and Brd4 (O60885) were used for all protein expression. In brief, the His6-tagged constructs were transformed into E. coli BL21(DE3) and induced with IPTG to produce the desired proteins. […] After cleaving the His-tag by TEV protease, a second Ni affinity column purification was performed to obtain tag-free protein in the flow-through. VCB was then additionally purified by anion exchange using MonoQ (GE Healthcare). For all proteins, purity was further polished by gel filtration chromatography.
(§2) Titrations were performed on an ITC200 microcalorimeter (GE Healthcare) as previously reported.[5] The titrations were in ITC buffer (20 mM Bis-Tris propane, 150 mM NaCl, 1 mM tris(2-carboxyethyl)phosphine (TCEP), pH 7.4), supplemented with either 0.2% or 3% DMSO and consisted of 19 injections of 2 μL of protein solution at a rate of 0.5 μL/s at 120 s time intervals. An initial injection of protein (0.4 μL) was made and discarded during data analysis. All experiments were performed at 25 °C, while stirring at 600 rpm. PROTACs were diluted from a 10 mM DMSO stock solution to 20 μM in ITC buffer with the final concentration of DMSO to be 0.2% for triazolodiazepine-based PROTAC or 3% for tetrahydroquinoline-based PROTAC. Bromodomain protein in the same buffer was titrated into the PROTAC in the cell. At the end of the titration, the excess of solution was removed from the cell, the syringe was washed and dried, and VCB complex (168 μM, in the same buffer) was loaded in the syringe and titrated into the complex of PROTAC–bromodomain. The concentration of the complex in the cell (C) after the first titration (16.8 μM) was calculated as follows: [drawing 1] where C0 is the initial concentration of the PROTAC in the cell (20 μM), Vcell is the volume of the sample cell (200.12 μL), and Vinj is the volume of titrant injected during the first titration (38.4 μL). Titrations for the binary complex PROTAC–VCB were performed in the same manner with VCB titrated into 16.8 μM PROTAC in the cell. […] The data were fitted to a single-binding-site model to obtain the stoichiometry n, the dissociation constant Kd, and the enthalpy of binding ΔH using the Microcal LLC ITC200 Origin software provided by the manufacturer.
(§3) Table S1. ITC results for the formation of binary and ternary complexes between 10, BET Bromodomain and VCB
(§4) Protein in Species in cell Kd (nM) ΔG (kcal × ΔH (kcal × -TΔS (kcal N α ΔpKd
(§5) Syringe mol-1) mol-1) × mol-1)
(§6) Titrations were performed at 25°C in duplicate except for VCB into 10, which was performed in quadruplicate.
(§7) Values reported are the mean ± s.e.m.

Brd2BD2 = Brd2BD2 (Homo sapiens, UniProt P25440); assay: ITC binary titration, Brd2BD2 into 10; assay type: binding; conditions: Brd2BD2 in syringe
Sequence of Brd2BD2 (P25440 344-453 limits assumed): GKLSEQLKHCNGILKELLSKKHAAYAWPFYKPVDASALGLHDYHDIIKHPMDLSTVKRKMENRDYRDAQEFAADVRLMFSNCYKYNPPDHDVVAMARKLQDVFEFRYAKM
Text: as §1, §2, §3, §4, §5, §6, §7

Brd3BD1 = Brd3BD1 (Homo sapiens, UniProt Q15059); assay: ITC binary titration, Brd3BD1 into 10; assay type: binding; conditions: Brd3BD1 in syringe
Sequence of Brd3BD1 (Q15059 34-140 limits assumed): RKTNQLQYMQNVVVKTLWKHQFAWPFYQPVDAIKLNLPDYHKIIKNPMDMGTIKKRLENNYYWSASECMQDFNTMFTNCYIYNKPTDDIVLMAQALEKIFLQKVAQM
Text: as §1, §2, §3, §4, §5, §6, §7

Brd3BD2 = Brd3BD2 (Homo sapiens, UniProt Q15059); assay: ITC binary titration, Brd3BD2 into 10; assay type: binding; conditions: Brd3BD2 in syringe
Sequence of Brd3BD2 (Q15059 306-415 limits assumed): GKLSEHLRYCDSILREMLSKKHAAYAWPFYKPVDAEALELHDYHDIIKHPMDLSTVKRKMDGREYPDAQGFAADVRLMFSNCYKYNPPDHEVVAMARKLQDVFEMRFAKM
Text: as §1, §2, §3, §4, §5, §6, §7

Brd4BD1 = Brd4BD1 (Homo sapiens, UniProt O60885); assay: ITC binary titration, Brd4BD1 into 10; assay type: binding; conditions: Brd4BD1 in syringe
Text: as §1, §2, §3, §4, §5, §6, §7

[4] = target: VCB / Brd2BD1 ternary complex (Homo sapiens, UniProt P25440+P40337); assay: ITC ternary titration, VCB into Brd2BD1:10; assay type: binding
Text: as §1, §2, §3, §4, §5, §6, §7

[5] = target: VCB / Brd2BD2 ternary complex (Homo sapiens, UniProt P25440+P40337); assay: ITC ternary titration, VCB into Brd2BD2:10; assay type: binding
Text: as §1, §2, §3, §4, §5, §6, §7

[6] = target: VCB / Brd3BD1 ternary complex (Homo sapiens, UniProt P40337+Q15059); assay: ITC ternary titration, VCB into Brd3BD1:10; assay type: binding
Text: as §1, §2, §3, §4, §5, §6, §7

[7] = target: VCB / Brd3BD2 ternary complex (Homo sapiens, UniProt P40337+Q15059); assay: ITC ternary titration, VCB into Brd3BD2:10; assay type: binding
Text: as §1, §2, §3, §4, §5, §6, §7

[8] = target: VCB / Brd4BD1 ternary complex (Homo sapiens, UniProt O60885+P40337); assay: ITC ternary titration, VCB into Brd4BD1:10; assay type: binding
Text: as §1, §2, §3, §4, §5, §6, §7

[9] = ternary, VCB in syringe, Brd4^BD2–PROTAC in cell

CC(=O)N1c2ccc(-c3ccc(C(=O)NCCOCCOCCOCC(=O)N[C@H](C(=O)N4C[C@H](O)C[C@H]4C(=O)NCc4ccc(-c5scnc5C)cc4)C(C)(C)C)cc3)cc2[C@H](Nc2ccc(Cl)cc2)C[C@@H]1C [compound 9, (2S,4R)-1-((S)-1-(4-((2S,4R)-1-Acetyl-4-((4-chlorophenyl)amino)-2-methyl-1,2,3,4-tetrahydroquinolin-6-yl)phenyl)-15-(tert-butyl)-1,13-dioxo-5,8,11-trioxa-2,14-diazahexadecan-16-oyl)-4-hydroxy-N-(4-(4-methylthiazol-5-yl)benzyl)pyrrolidine-2-carboxamide]
stoichiometry N (Brd4^BD2): 1.15 ± 0.01 | ΔG (Brd4^BD2): –11.5 ± 0.3 kcal·mol^–1 | ΔH (Brd4^BD2): –9.74 ± 0.10 kcal·mol^–1 | –TΔS (Brd4^BD2): –1.73 ± 0.30 kcal·mol^–1 | stoichiometry N [1]: 0.96 ± 0.01 | ΔG [1]: –9.52 ± 0.13 kcal·mol^–1 | ΔH [1]: –6.18 ± 0.12 kcal·mol^–1 | –TΔS [1]: –3.34 ± 0.18 kcal·mol^–1 | α [2]: 0.5 | cooperativity (α) Brd4–BD2 [2]: 0.46 | ΔpKd ± uncertainty [2]: –0.34 ± 0.12 | stoichiometry N [2, 9]: 1.44 ± 0.02 | ΔG [2, 9]: –9.06 ± 0.09 kcal·mol^–1 | ΔH [2, 9]: –6.90 ± 0.11 kcal·mol^–1 | –TΔS [2, 9]: –2.16 ± 0.14 kcal·mol^–1 | concentration with increased levels of BET proteins (hook effect) ([3]; 24 h): 1 to 10 µM

CC(=O)N1c2ccc(-c3ccc(C(=O)NCCOCCOCCOCCOCC(=O)N[C@H](C(=O)N4C[C@H](O)C[C@H]4C(=O)NCc4ccc(-c5scnc5C)cc4)C(C)(C)C)cc3)cc2[C@H](Nc2ccc(Cl)cc2)C[C@@H]1C [compound 10, (2S,4R)-1-((S)-1-(4-((2S,4R)-1-Acetyl-4-((4-chlorophenyl)amino)-2-methyl-1,2,3,4-tetrahydroquinolin-6-yl)phenyl)-18-(tert-butyl)-1,16-dioxo-5,8,11,14-tetraoxa-2,17-diazanonadecan-19-oyl)-4-hydroxy-N-(4-(4-methylthiazol-5-yl)benzyl)pyrrolidine-2-carboxamide]
stoichiometry N (Brd4^BD2): 0.86 ± 0.06 | stoichiometry N [1]: 0.92 ± 0.15 | α [2]: 0.6 | cooperativity (α) Brd4–BD2 [2]: 0.59 | ΔpKd ± uncertainty [2]: –0.22 ± 0.08 | stoichiometry N [2, 9]: 0.87 ± 0.02 | -TΔS (Brd2BD1): 1.86 ± 0.02 kcal/mol | N (Brd2BD1): 1.00 ±0.08 | ΔG (Brd2BD1): -10.0 ± 0.2 kcal/mol | ΔH (Brd2BD1): -11.9 ± 0.2 kcal/mol | Kd (Brd2BD1; 10 in cell, 25°C): 45 ± 13 nM | -TΔS (Brd2BD2): -1.19 ± 0.07 kcal/mol | N (Brd2BD2): 0.84 ±0.05 | ΔG (Brd2BD2): -11.3 ± 0.01 kcal/mol | ΔH (Brd2BD2): -10.1 ± 0.1 kcal/mol | Kd (Brd2BD2; 10 in cell, 25°C): 5 ± 0.1 nM | -TΔS (Brd3BD1): 3.2 ± 0.2 kcal/mol | N (Brd3BD1): 0.98 ±0.04 | ΔG (Brd3BD1): -10.1 ± 0.1 kcal/mol | ΔH (Brd3BD1): -13.3 ± 0.4 kcal/mol | Kd (Brd3BD1; 10 in cell, 25°C): 39 ± 8 nM | -TΔS (Brd3BD2): 3.0 ± 0.1 kcal/mol | N (Brd3BD2): 1.02 ±0.09 | ΔG (Brd3BD2): -10.9 ± 0.3 kcal/mol | ΔH (Brd3BD2): -13.9 ± 0.4 kcal/mol | Kd (Brd3BD2; 10 in cell, 25°C): 11 ± 5 nM | -TΔS (Brd4BD1): 1.6 ± 0.7 kcal/mol | N (Brd4BD1): 0.73 ±0.02 | ΔG (Brd4BD1): -10.3 ± 0.4 kcal/mol | ΔH (Brd4BD1): -11.9 ± 0.3 kcal/mol | Kd (Brd4BD1; 10 in cell, 25°C): 39 ± 24 nM | α ([4]; cooperativity, Brd2BD1): 0.3 | ΔpKd ([4]; ternary vs binary, Brd2BD1): 0.41 ±0.23 | -TΔS ([4]; ternary, VCB into Brd2BD1:10): -4.19 ± 0.92 kcal/mol | N ([4]; ternary, VCB into Brd2BD1:10): 0.99 ±0.08 | ΔG ([4]; ternary, VCB into Brd2BD1:10): -8.95 ± 0.31 kcal/mol | ΔH ([4]; ternary, VCB into Brd2BD1:10): -4.76 ± 0.62 kcal/mol | α ([5]; cooperativity, Brd2BD2): 0.3 | ΔpKd ([5]; ternary vs binary, Brd2BD2): 0.52 ±0.17 | Kd ([5]; ternary, VCB in syringe, Brd2BD2:10 in cell, 25°C): 384 ± 145 nM | -TΔS ([5]; ternary, VCB into Brd2BD2:10): -1.02 ± 0.61 kcal/mol | N ([5]; ternary, VCB into Brd2BD2:10): 0.73 ±0.02 | ΔG ([5]; ternary, VCB into Brd2BD2:10): -8.80 ± 0.23 kcal/mol | ΔH ([5]; ternary, VCB into Brd2BD2:10): -7.77 ± 0.37 kcal/mol | α ([6]; cooperativity, Brd3BD1): 0.7 | ΔpKd ([6]; ternary vs binary, Brd3BD1): 0.14 ±0.09 | Kd ([6]; ternary, VCB in syringe, Brd3BD1:10 in cell, 25°C): 152 ± 30 nM | -TΔS ([6]; ternary, VCB into Brd3BD1:10): -5.18 ± 0.14 kcal/mol | N ([6]; ternary, VCB into Brd3BD1:10): 1.03 ±0.18 | ΔG ([6]; ternary, VCB into Brd3BD1:10): -9.31 ± 0.12 kcal/mol | ΔH ([6]; ternary, VCB into Brd3BD1:10): -4.13 ± 0.02 kcal/mol | α ([7]; cooperativity, Brd3BD2): 0.3 | ΔpKd ([7]; ternary vs binary, Brd3BD2): 0.58 ±0.14 | Kd ([7]; ternary, VCB in syringe, Brd3BD2:10 in cell, 25°C): 434 ± 128 nM | -TΔS ([7]; ternary, VCB into Brd3BD2:10): -1.37 ± 0.54 kcal/mol | N ([7]; ternary, VCB into Brd3BD2:10): 1.03 ±0.15 | ΔG ([7]; ternary, VCB into Brd3BD2:10): -8.71 ± 0.18 kcal/mol | ΔH ([7]; ternary, VCB into Brd3BD2:10): -7.33 ± 0.36 kcal/mol | α ([8]; cooperativity, Brd4BD1): 0.5 | ΔpKd ([8]; ternary vs binary, Brd4BD1): 0.29 ±0.14 | Kd ([8]; ternary, VCB in syringe, Brd4BD1:10 in cell, 25°C): 221 ± 65 nM | -TΔS ([8]; ternary, VCB into Brd4BD1:10): -6.63 ± 0.09 kcal/mol | N ([8]; ternary, VCB into Brd4BD1:10): 0.70 ±0.07 | ΔG ([8]; ternary, VCB into Brd4BD1:10): -9.11 ± 0.18 kcal/mol | ΔH ([8]; ternary, VCB into Brd4BD1:10): -2.47 ± 0.09 kcal/mol | window of concentration for selective degradation of BRD3/4 [3]: 30 to 100 nM | concentration with increased levels of BET proteins (hook effect) ([3]; 24 h): 1 to 10 µM | intra-BET degradation selectivity ([3]; 24 h): depletion selectivity for Brd4 and Brd3 over Brd2
